# Laboratory results published in patent US6869940B2, “Malignant tumor metastasis inhibitors” (Chugai Seiyaku Kabushiki Kaisha, priority 1995, dated 2005).
# Test system: Hara cells derived from human lung cancer
# Experiment: Bone metastasis model: Hara cells transplanted into the heart of nude mice, preventive effect of OCT
# Type: in vivo
# Source text: Preventive effects of OCT on bone metastases were studied using a bone metastasis model prepared with Hara cells derived from human lung cancer.
# A test of preventive effects of OCT on bone metastases of Hara cells was started on the 20th day after 5×10^5 Hara cells were transplanted into the heart of nude mice, at which time the body weight of the animals began to slightly decrease but neither rise in Ca nor clear bone metastasis image on soft X-rays was observed. On that day, the animals were grouped by body weight, and a vehicle (n=9) or 1 μg/kg of OCT (n=9) was orally administered to each animal 4 to 5 times per week for six weeks (29 times in total). At different instants during the administration period, the body weight and Ca level in blood were measured and soft X-ray photographs were taken.
# [1] = after 15 doses on the 22nd day after starting the test, 1 μg/kg OCT orally, n=9
# [2] = after 20 doses on the 29th day after starting the test, 1 μg/kg OCT orally, n=9
# [3] = first day of the test, 1 μg/kg OCT orally, n=9
compound,measurement,setting,value
"C=C1/C(=C\C=C2/CCC[C@@]3(C)C2CC[C@@H]3[C@H](C)OCCC(C)(C)O)C[C@@H](O)C[C@@H]1O (stereo partly drawn) [OCT, 22-oxa-1α, 25-dihydroxyvitamin D3]",effect on rise in Ca level in blood,1 μg/kg OCT orally vs vehicle group,tendency to suppress the rise in Ca level in blood
same,death,"1 μg/kg OCT orally, n=9, in the vehicle group four animals died by the 42nd day",no death was observed
same,effect on body weight decrease,"29th day, 1 μg/kg OCT orally vs vehicle group, p<0.05",significantly suppressed body weight decrease
same,Ca level in blood,[1],1.37 ± 0.04 mM
same,body weight,[1],24.51 ± 1.27 g
same,Ca level in blood,[2],1.34 ± 0.16 mM
same,body weight,[2],25.00 ± 1.20 g
same,bone metastasis image on soft X-ray photographs,"during the administration period (six weeks), 1 μg/kg OCT orally, n=9, vehicle group: four animals in total",no bone metastasis image was observed
same,Ca level in blood,[3],1.32 ± 0.04 mM
same,body weight,[3],23.61 ± 1.57 g
